Source: the supplement of paper PMC5908809

Key:
[1] = tested on: normal NK cells expanded with K562-aAPC; assay: percent inhibition of viability; higher = more inhibition; conditions: 72 h, IL-2 2.5 ng/mL
Procedure: (§1)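 Drug sensitivity and resistance testing on K562-aAPC-expanded normal NK cells: 5 concentrations (10-fold steps over a 10,000-fold range), 72 h at 37 °C, viability by CellTiter-Glo normalised to DMSO and benzethonium chloride controls; DSS from the fitted curve.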

[2] = tested on: DERL-7 (IL-2 2.5 ng/mL); assay: as above; conditions: 72 h
[3] = tested on: IMC-1 (IL-2 20 ng/mL); assay: as above; conditions: 72 h
[4] = tested on: KAI3 (IL-2 2.5 ng/mL); assay: as above; conditions: 72 h
[5] = tested on: KHYG-1 (IL-2 2.5 ng/mL); assay: as above; conditions: 72 h
[6] = tested on: NK-92 (IL-2 2.5 ng/mL); assay: as above; conditions: 72 h
[7] = tested on: NK-YS (IL-2 2.5 ng/mL); assay: as above; conditions: 72 h
[8] = tested on: NKL (IL-2 2.5 ng/mL); assay: as above; conditions: 72 h
[9] = tested on: SNK-6 (IL-2 2.5 ng/mL); assay: as above; conditions: 72 h
[10] = tested on: YT (IL-2 2.5 ng/mL); assay: as above; conditions: 72 h
[11] = tested on: normal primary NK cells, pool 1 (3 donors) (IL-2 2.5 ng/mL); assay: as above; conditions: 72 h
[12] = tested on: normal primary NK cells, pool 1 (3 donors), resting (IL-2 0 ng/mL); assay: as above; conditions: 72 h
[13] = tested on: normal primary NK cells, pool 2 (3 donors) (IL-2 2.5 ng/mL); assay: as above; conditions: 72 h
[14] = tested on: normal primary NK cells, pool 3 (3 donors) (IL-2 2.5 ng/mL); assay: as above; conditions: 72 h
[15] = tested on: normal NK cells expanded with K562-aAPC; assay: drug sensitivity score (DSS) (DSS units); higher = more sensitive; extreme values may be limits of the assay; conditions: 72 h; IL-2 2.5 ng/mL
Procedure: as §1

[16] = tested on: DERL-7 (IL-2 2.5 ng/mL); assay: as above; conditions: 72 h
[17] = tested on: IMC-1 (IL-2 20 ng/mL); assay: as above; conditions: 72 h
[18] = tested on: KAI3 (IL-2 2.5 ng/mL); assay: as above; conditions: 72 h
[19] = tested on: KHYG-1 (IL-2 2.5 ng/mL); assay: as above; conditions: 72 h
[20] = tested on: NK-92 (IL-2 2.5 ng/mL); assay: as above; conditions: 72 h
[21] = tested on: NK-YS (IL-2 2.5 ng/mL); assay: as above; conditions: 72 h
[22] = tested on: NKL (IL-2 2.5 ng/mL); assay: as above; conditions: 72 h
[23] = tested on: SNK-6 (IL-2 2.5 ng/mL); assay: as above; conditions: 72 h
[24] = tested on: YT (IL-2 2.5 ng/mL); assay: as above; conditions: 72 h
[25] = tested on: normal primary NK cells, pool 1 (3 donors) (IL-2 2.5 ng/mL); assay: as above; conditions: 72 h
[26] = tested on: normal primary NK cells, pool 1 (3 donors), resting (IL-2 0 ng/mL); assay: as above; conditions: 72 h
[27] = tested on: normal primary NK cells, pool 2 (3 donors) (IL-2 2.5 ng/mL); assay: as above; conditions: 72 h
[28] = tested on: normal primary NK cells, pool 3 (3 donors) (IL-2 2.5 ng/mL); assay: as above; conditions: 72 h

Oc1ncnc2[nH]ncc12 [Allopurinol] (max concentration tested 10000 nM)
percent inhibition of viability [%]
Conditions | 1 nM | 10 nM | 100 nM | 1000 nM | 10000 nM
[1] | -3.35 | -7.15 | -3.73 | 3.65 | 10.3
[2] | 2.01 | 4.75 | 3.34 | 1.14 | -11.8
[3] | 0.44 | 0.22 | 0.39 | 1.15 | 17.8
[4] | 17.2 | 10.9 | 9.45 | 11.5 | 25.8
[5] | -9.33 | -11.3 | -5.44 | -3.66 | 4.19
[6] | 6.41 | 11.2 | 3.55 | 20.5 | 30.9
[7] | 2.79 | -1.6 | -0.2 | 4.55 | 19.6
[8] | 1.32 | 3.75 | 2.9 | 25.9 | 26
[9] | 11.9 | -22.5 | -2.24 | -13.2 | 5.06
[10] | -7.85 | -8.54 | -5.69 | -2.75 | 18
[11] | -1.72 | 15.7 | 6.17 | 6.91 | 4.11
[12] | 22.9 | 25.1 | 18.7 | 23.7 | 20.5
[13] | 4.21 | 8.86 | 8.54 | 1.11 | 5.24
[14] | -2.7 | 8.19 | 6.53 | 0 | 8.15

Conditions | drug sensitivity score
[15] | 0.01
[16] | 0
[17] | 0.55
[18] | 0
[19] | 0
[20] | 3.57
[21] | 1.14
[22] | 4.59
[23] | 0
[24] | 0.33
[25] | 0
[26] | 0
[27] | 0
[28] | 0
